Experiments:
[1] = tested on: CFSE-marked syngenic spleen cells charged with SGP peptide (target cells for the CTLs); assay: In vivo killer assay; design: species or system mice; conditions: for specific reaction (FIG. 2, functionality of transcutaneously activated CTL): transcutaneous treatment, in vivo killer assay 6 days after immunisation
Procedure: The specific cytotoxic functionality of the activated cells was determined by means of what is known as an in vivo killer assays 6 days after the last immunisation. For this purpose spleen cells marked with CFSE (5,6-carboxyfluorescein diacetate succinimidylester, Molecular Probes) from syngenic mice were used as target cells for the cytotoxic T cells (CTLs). Half of the cells were dyed with 3 μM CFSE, the other half with 0.3 μM CFSE. The cells marked with 3 μM CFSE were charged with the synthetic SGP peptide (10 μM peptide; 40×10^6 cells per ml ISC medium; 1 h; 37° C.) and these were then washed twice with medium and twice with PBS. The cells marked with 0.3 μM CFSE were only incubated in ISC medium and also washed. The cells were mixed in a ratio of 1:1 and the mice were injected in vivo with 15×10^6 cells in 300 μl PBS in each case. After 18 h the mice were killed and the spleen cells removed and flow cytometrically analysed. The CFSE-positive cells were counted in a FACS-Canto flow cytometer. The specific lysis resulted from the ratio of cell counts of the cells charged with peptide and strongly marked with CFSE and the cells that were not charged with peptide and were weakly marked with CFSE. Since the two cell populations had been used in a ratio of 1:1 the number of cells not charged with peptide tallies with the original number of cells charged with peptide. The specific lysis is then calculated as follows:
[formula] [formula] CFSE Marking
The spleen cells were prepared as described above. Following ACK lysis the cells were resuspended in 10 ml PBS, counted and adjusted to 2×10^7 cells per ml. The cell suspension was mixed with an adequate volume of a 6 μM or 0.6 μM CFSE solution (in PBS) and incubated for 4 min at 37° C. The reaction was then stopped following addition of double the volume of ISC medium supplemented with 10% foetal calf serum (FCS). The cells were washed twice with FCS-free medium and counted.
To determine the functionality of the activated cells an in vivo killer assay was carried out 6 days after immunisation. For this purpose syngenic spleen cells marked with a high CFSE concentration were charged with peptide, mixed 1:1 with cells marked with a weak CFSE concentration and not charged with peptide and transferred i.v. into the mice. […] The fluorescence of the spleen cells in the FL-1 channel (CFSE) can be seen in each case. The lysis was calculated to the number of uncharged cells and is given in percent (B).
To determine the functionality of the activated cells an in vivo killer assay was carried out 6 days after immunisation. […] The fluorescence of the spleen cells in the FL-1 channel (CFSE) can be seen in each case. The specific lysis was calculated to the number of uncharged cells and is given in percent.

[2] = tested on: TCR transgenic cytotoxic T cells (CTL), CD45.1-positive CD8+; assay: Analysis of the number of adoptively transferred transgenic cytotoxic T cells (CTL) in blood/spleen after immunisation (flow cytometry); type: in vivo, mice
From the text: In this model a defined transgenic, which codes for a specific T cell receptor that recognises a specific MHC class I ligand ([…] (SEQ ID NO: 23); abbreviated to SGP) from the adenovirus type 5 in the context of MHC class I (H2-D^b), was introduced into mice. As already characterised by the inventors [“M. Hofmann, M. Radask, G. Rechtsteiner, K. Wiemann, M. Grander, U. Bien-Gräter, R. Offfringa, R.E.M. Toes, H.G. Rammensee, H. Schild; T cell avidity determines the level of CTL activation; Eur. J. Immunol. 2004: 34, 1798 to 1806”], the cytotoxic T cells (CTL) from these animals were only activated if they came into contact with this MHC class I ligand SGP in the context of H2-D^b. To be able to follow the activation of this CTL in the recipient animal the non-activated (naïve) CTL from transgenic donor mice was intravenously (i.v.) injected into syngenic recipient mice which differed in the allele of a lymphocyte marker (CD45.1 on transgenic cells or CD45.2 on cells of the recipient mice). […]
To measure the proliferation of the adoptively transferred cells blood was taken from the tail vein of the mice 4 days after the last immunisation and the blood sample was analysed flow cytometrically. […] For flow cytometric analysis of the cells they were stained with fluorescence-marked antibodies (anti-CD8 APC-Cy7-conjugated, anti-CD45.1 PE-conjugated (commercially available from Becton-Dickinson Pharmingen, Hamburg)) and, more precisely, for 30 min in 50 μl FACS buffer on ice in 96-well circular bottomed plates. The cells were washed twice with FACS buffer and analysed in a FACS-canto flow cytometer (Becton-Dickinson Pharmingen, Hamburg). […]
The transgenic CD8^+ cell content in the total population of CD8^+ cells was flow cytometrically determined in the blood or spleen. […] The fluorescence in the FL-2 channel (PE) of the CD8^+ lymphocytes can be seen in each case. […] In all mice the transgenic CD8^+ cells content prior to immunisation and 4 days after immunisation was determined in the spleen (A).

Row | Molecule | specific reaction (FIG. 2, functionality of transcutaneously activated CTL) [1] | Specific lysis (%) ([1]; Group 3: 50 μg peptide (i.d.) alone, 6 days after immunisation) | functional activation of the CTL ([1]; immunisation with peptide only (group Mouse 3), FIG. 1B) | % transgenic CD8+ in total CD8+, Day 4 Blood ([2]; Group 3: 50 μg peptide (i.d.) alone, day 4, blood) [%] | % transgenic CD8+ in total CD8+, Day 6 Spleen ([2]; Group 3: 50 μg peptide (i.d.) alone, day 6, spleen) [%] | increase in transgenic cells ([2]; peptide applied on its own (without additives, adjuvants))
1 | CC(C)Cn1cnc2c(N)nc3ccccc3c21 [imiquimod, 1-(2-methylpropyl-)1H-imidazo[4,5-c]quinolin-4-amine, reference compound] | did not exhibit a specific reaction | – | – | – | – | –
2 | SGPSNTPPEI (Adenovirus type 5) [peptide, MHC class I ligand (H2-Db) from the E1A protein of adenovirus type 5, synthetically produced] | did not exhibit a specific reaction | 3.51 | does not lead to functional activation | 4.38 | 2.04 | only a marginal increase
